Measured values reported in patent publication US20250228833A1, “METHODS AND COMPOSITIONS FOR TREATING AGITATION” (BioXcel Therapeutics, Inc., priority 2021, published 2025).
Structures can show the parent of a compound that is named as a salt.

Columns and labels:
[1] = tested on: yohimbine-induced noradrenergic hyperarousal; assay: Elevated plus maze, latrepirdine at different doses in yohimbine-induced hyperarousal (Example 3); type: in vivo, Wistar rats; settings: for Percent increase as referred to the Vehicle level, Entries / Percent increase as referred to the Vehicle level, Time: yohimbine 2.5 mg/kg i.p. 30 min, 60 min
Protocol: Drug preparation: All compounds/drugs were prepared in normal saline (0.9% NaCl).
Yohimbine was prepared at a solution of 2.5 mg/mL which when injected i.p. at a dosage volume of 1 mL/kg results in a dose of 2.5 mg/kg. Diazepam was prepared at a solution of 1 mg/mL which when injected i.p. at a dosage volume of 1 mL/kg results in a dose of 1 mg/kg. Latrepirdine dihydrochloride hydrate was prepared at a solution of 7.5, 2.5, 0.75 and 0.25 mg/mL which when injected i.m. at a volume of 100 μL for a rat of 250 g results in doses of 3; 1; 0.3 and 0.1 mg/kg; respectively. Latrepirdine dihydrochloride hydrate was also prepared at […] which when administrated i.p. at a dosage volume of 1 mL/kg results in a dose of 3 mg/kg.
Male Wistar rats (Janvier; Le Genest St Isle-France) were used for the study. They were purchased at a body weight of 150 g and reached a body weight of about 220 g at the time of use. They were group-housed (3-4 rats per cage) and maintained in a room with controlled temperature (21-22° C.) and a reversed light-dark cycle (12 h/12 h; lights on: 17:30-05:30; lights off: 05:30-17:30) with food and water available ad libitum.
Rats were distributed in 9 different experimental groups with 12 rats per group as illustrated in Table 6. Each experimental group was also coded so that the experimenter became unaware of the true experimental group at the time EPM trial.
The rats were randomly assigned to one of the different experimental groups. Each animal was identified by its group name, cage number, series (day) of experiment, and a number (from 1 to 9) written with permanent ink on its tail. They were handled by an experimenter for about 3 min each day during 1 week prior to the day of EPM trial. The apparatus was a PVC maze covered with Plexiglas and subdivided into four equal exploratory arms (40×10 cm), which were all interconnected by a small platform (10×10 cm). The apparatus was placed 65 cm above the floor. Two arms were opened, and two others were closed with wall (high: 10 cm). After compound administration, rat was placed on the platform opposite a closed arm. The number of entries and the time spent in each arm were recorded during a 5 min period. The animal was considered as entered in an arm when it placed its four paws in the arm. The apparatus was cleaned between each animal using alcohol (70%). Urine and feces were removed from the maze. During the trials, animal handling and the visibility of the operator were minimized as much as possible.
Analysis of variance (ANOVA) was performed on the result data. Fisher's PLSD was used for pairwise comparisons and p value≤0.05 were considered significant. For the sake of comparison, the change in the EPM performance of Yohimbine rats was expressed as a percentage of increase/decrease as referred to the level recorded in the vehicle (set as 0% change). Therefore, for each of the EPM parameter, the following formula was used: [performance of a given group-performance of vehicle group]/[performance of vehicle group]×100

[2] = tested on: aggressive behavior; assay: Resident intruder task (Example 5); type: in vivo, Swiss albino mice; settings: 10 mg/kg i.p., 60 min prior to trial; mean value
Protocol: Strain/Gender: Swiss albino/Male
Bilateral ovariectomy surgery was carried out in 3-4 weeks old female Swiss albino mice as per the standard methods (Alagwu and Nneli, 2005). Animals were anesthetized using Avertin (2,2,2-Tribromoethanol) at 250 mg/kg, i.p. and were laid down on the surgery table and fixed with adhesive plaster. A midline incision was made on the dorsal region below the rib and 1 cm lateral to the either side of midline, a small incision was made on fascia to isolate the adipose fat supporting the ovaries. By slowly pulling out the fat tissue, the ovary was identified and excised the following uterine horn ligation with silk sutures. Fascia was covered with sutures and similar procedure was repeated on the other side as well. Superficial skin layers were sutured and gentamicin (80 mg/kg, s.c.) was given as antibiotic and meloxicam (4 mg/kg, s.c.) as analgesic, then povidone iodine was applied on superficial skin layers. Polyethylene glycol (PEG) was applied to prevent drying of eye balls and kept for recovery period of 3 weeks (surgery was carried by a single experimenter). […]
Data obtained was compared with basal scoring by using Student's paired two tailed t-test. Duration of attack, and latency of attack between the groups was analyzed using One-Way ANOVA followed by Bonferroni's posthoc test. […]

[3] = tested on: yohimbine-induced noradrenergic mediated hyperarousal; assay: Elevated plus maze, yohimbine-induced hyperarousal (Example 2); type: in vivo, Wistar rats; settings: for exploration time (time spent in the open arms) / number of open arm entries: 60 min prior to EPM, yohimbine 2.5 mg/kg i.p. 30 min prior, 5 min period; for reduction of noradrenergic mediated hyperarousal: 10 mg/kg i.m. pretreatment, yohimbine 2.5 mg/kg i.p.
Source text: Background: Yohimbine is an alpha 2-adrenergic receptor antagonist reported to trigger panic attacks in healthy volunteers and to exacerbate symptoms in patients with panic disorder (Charney et al., 1992 Acta Psychiatr Scand., Vol. 86 (4): 273-282). Peripheral administration of Yohimbine causes noradrenergic mediated hyperarousal in rats as assessed by the EPM paradigm.
Rationale: The drug yohimbine is a natural product used to test a specific pathway, noradrenergic-mediated hyper-arousal. It is well established that yohimbine is an alpha2-adrenergic receptor antagonist and activates the locus coeruleus (LC) and increases noradrenergic signaling (the opposite of alpha2-adrenergic agonists like dexmedetomidine and clonidine). Increased LC activity and noradrenergic signaling makes animals anxious and agitated which can be measured by using the elevated plus maze. In the elevated plus maze, rodents were in the closed arms and explored the open arms depending on their anxiety and agitation (rats and mice normally explore their environments extensively when calm).
Animal groups: Male: Wistar rats were used in this study and were randomly divided to different experimental groups (12 animals per group).
The test drugs were procured from Sigma or Tocris. dextromethorphan from Sigma Aldrich, Cat No. D9684; latrepirdine from Sigma Aldrich, Cat No. D6196 or Tocris Cat No. 3201 diazepam and fluvoxamine Sigma Aldrich, Cat No. F2802 or Tocris, Cat No. 1033. All these test drugs were formulated in sufficient quantity in 0.9% saline except for Fluvoxamine, which was formulated in 30% ethanol in 0.9% saline.
Apparatus: Elevated Plus Maze (EPM) was used (FIG. 1). The maze consisted of two closed arms and two open arms forming a cross, with a square center platform. All visible surfaces were made of black acrylic. Each arm of the maze was placed on a support column above the floor. Antistatic black vinyl curtains used for surrounding the EPM to make an enclosure.
Study Design and Dosing: Yohimbine was administered by intraperitoneal injection (i.p.) at a dose of 2.5 mg/kg (30 minutes prior to study) to induce agitation and the effects were assessed 30 minutes after yohimbine injection by measuring the number of open arm entries and exploration time in the EPM. The test drugs fluvoxamine, dextromethorphan and latrepirdine dihydrochloride hydrate were administered through intramuscular route and, diazepam through intraperitoneal route into the hindleg thigh muscle of rats (60 minutes prior to study; 30 minutes prior to yohimbine administration). Diazepam was injected 30 minutes intraperitonially prior to the assay i.e. along with yohimbine administration. The study design is illustrated in FIG. 2 and table 5.
After the test drug administration, the rat was placed on the platform opposite a closed arm. The number of entries and the time spent in each arm were recorded during a 5 min period. The animal was considered as entered in arm when it placed its four paws into the arm.
Statistical Analysis: Analysis of variance (ANOVA) was performed on the result data. Fisher's PLSD was used for pairwise comparisons and p value≤0.05 was considered significant.

[4] = tested on: depressive-like behavior; assay: Forced swim test in dark phase (Example 4)
Protocol: • Species: Rattus norvegicus • Strain: Sprague Dawley (SD) • Sex and Age: Male, 8-10 weeks old • Source: Hylasco Biotechnology Pvt.
Study was carried out as a staggered treatment, each treatment group divided as cohort 1, cohort 2 and cohort 3.
Swim 2 was carried out between 19:30 to 21:30. Animals were administered test compounds from 18:30 onwards in staggered manner 60 minutes before FST 2.
Forced Swim Test was carried out in Dark Phase
On Day 1, animals were subjected to forced swim test training for 15 minutes (Swim 1) and on Day 2, Swim 2 was carried out post treatment.
On day 2 animals were dosed with respective treatment 60 min prior to performing FST.
Forced swim test (Swim 2) was scored manually with no video recording
Forced swim test (FST), was used to study the depressive-like behavior in rodents. The test was carried out in transparent cylindrical glass containers measuring 46 cm in height and 20 cm in diameter.
The containers were filled with water (23-25° C.) to a depth of 30 cm.
There were 2 swim sessions, 24 h apart. The first session, Swim 1 was the pretest/training stage (15 min) and the second session, Swim 2, was the test stage (8 min).
In swim 2, first 1-minute data was excluded from analysis and rest 7 minutes data was considered. In 7 minutes, data, it was divided 5 minutes and 2 minute.
Rat was placed in the water-filled cylinder for 15 min (Swim 1). […]

[5] = tested on: spontaneous locomotor activity; assay: Open field test (Example 7); settings: 60 min post dose, 30 minutes tracking, vs vehicle
Protocol: Test system: Mice Strain/Gender: Swiss albino/Male Study: Open field test
Open field test: The spontaneous locomotor activity in terms of total distance traveled is measured in open field test. Comparatively lower distance traveled would indicate either less motor activity or sedation.
Mice were brought to the laboratory and allowed to acclimatize to the environment for at least 7 days. The open field test was done in lighting conditions of 40 lux light. The mice were dosed as per the allocation. After a post dose interval of 60 minutes, 4 mice from a group were placed in the open field and the movement was tracked for a period of 30 minutes. Once the trial was over the mice were removed from the open field and the arena was cleaned. Following this, next set of 4 mice were placed in the arena and tracked.
The distance travelled for a period of 30 minutes was analyzed in bins of 5 minutes and was compared with that of the vehicle group using one-way ANOVA followed by Dunnett's test. All statistical analysis were performed using Graph pad prism software package (Version 7 or Higher) and p value below 0.05 was considered as significant.

SMILES: COC(=O)[C@@H]1[C@H]2C[C@H]3c4[nH]c5ccccc5c4CCN3C[C@@H]2CC[C@@H]1O [yohimbine, Yohimbine]
- number of visits to and time spent into the open arms ([1]; 2.5 mg/kg i.p., vehicle-treated, compared to vehicle-treated saline rats): marked significant decrease

SMILES: Cc1ccc2c(c1)c1c(n2CCc2ccc(C)nc2)CCN(C)C1 [Latrepirdine dihydrochloride hydrate, 2,8-dimethyl-5-[2-(6-methylpyridin-3-yl)ethyl]-3,4-dihydro-1H-pyrido[4,3-b]indole]
- duration of attack [2]: 36.87 s
- exploration time (time spent in the open arms) ([3]; 3 mg/kg i.m.): increased
- number of open arm entries ([3]; 3 mg/kg i.m.): significantly increased
- exploration time (time spent in the open arms) ([3]; 10 mg/kg i.m.): increased
- number of open arm entries ([3]; 10 mg/kg i.m.): significantly increased
- increase in swimming time as compared to vehicle saline ([4]; 1 mg/kg i.m.): 9.8%
- Percent increase as referred to the Vehicle level, Entries ([1]; 1 mg/kg i.m.): significant
- Percent increase as referred to the Vehicle level, Time ([1]; 1 mg/kg i.m.): significant
- Percent increase as referred to the Vehicle level, Entries ([1]; 3 mg/kg i.m.): significant
- Percent increase as referred to the Vehicle level, Time ([1]; 3 mg/kg i.m.): significant
- number of visits to and time spent into the open arms, dose dependence ([1]; yohimbine administered rats, 0.1, 0.3, 1 and 3 mg/kg i.m.): dose-dependent increase
- EPM performance, i.m. compared with i.p. route ([1]; yohimbine rats, 3 mg/kg i.m. vs 3 mg/kg i.p.): comparable
- EPM performance of saline-treated rats ([1]; yohimbine-free rats, 3 mg/kg i.m.): did not significantly modify
- distance traveled ([5]; 1 mg/kg i.p.): did not show any significant reduction
- distance traveled ([5]; 3 mg/kg i.p.): did not show any significant reduction
- distance traveled ([5]; 10 mg/kg i.p.): did not show any significant reduction

SMILES: COCCCC/C(=N\OCCN)c1ccc(C(F)(F)F)cc1 [fluvoxamine, Fluvoxamine]
- reduction of noradrenergic mediated hyperarousal [3]: ineffective
- exploration time (time spent in the open arms) ([3]; 10 mg/kg i.m.): no effect
- number of open arm entries ([3]; 10 mg/kg i.m.): no effect

SMILES: Cc1cccc([C@H](C)c2cnc[nH]2)c1C [Dexmedetomidine hydrochloride, (+) 4-(S)-[1-(2,3-dimethylphenyl)ethyl]-1H-imidazole]
- increase in swimming time as compared to vehicle saline ([4]; 1 μg/kg i.m.): ~1.6%
- distance traveled ([5]; 4 μg/kg i.p.): did not show any significant reduction
- distance traveled ([5]; 10 μg/kg i.p.): did not show any significant reduction
- distance traveled ([5]; 20 μg/kg i.p.): did not show any significant reduction
- distance traveled ([5]; 30 μg/kg i.p.): significant reduction

SMILES: COc1ccc2c(c1)[C@]13CCCC[C@@H]1[C@H](C2)N(C)CC3 [dextromethorphan, Dextromethorphan]
- reduction of noradrenergic mediated hyperarousal [3]: ineffective
- exploration time (time spent in the open arms) ([3]; 10 mg/kg i.m.): no effect
- number of open arm entries ([3]; 10 mg/kg i.m.): no effect
